Results reported in paper PMC10916382, “Repurposing screen identifies novel candidates for broad-spectrum coronavirus antivirals and druggable host targets” (Antimicrobial Agents and Chemotherapy, 2024).
Where a name gives a salt, the structure may show the parent alone. Read-outs that look alike come from different tables or passages of the source.

Experiments:
HCoV-229E = assay: microbe, parasite or virus in culture; format: cell-based, Homo sapiens sapiens; conditions: Human coronavirus 229E
in vitro [1] = conditions: human
in vitro [2] = assay: in vitro
[3] = Huh7.5, read-out: IC50 (µM), HCoV 229E
[4] = Huh-7.5/F-Luc cells, maximum tested dose 5 µM
[5] = Calu-3 cells, immunofluorescence imaging
[6] = Anti-SARS-CoV-2 screening on Calu-3 cells: viability [% of control], Calu-3 cells
[7] = Huh-7.5 cells, dose series, maximum tested dose 5 µM

| Structure (SMILES) | viability at 5 µM (in vitro [1]) [%] | CC50 (µM) (Huh-7.5/F-Luc cells; [4]) | Anti-SARS-CoV-2 screening on Calu-3 cells: intracellular SARS-CoV-2 infection measured via immunofluorescence imaging [% of control] (SARS-CoV-2; [5]) | viability (in vitro [2]; [6]) [%] | IC50 (HCoV-229E; Huh7.5) [µM] | CC50 (µM) (Huh-7.5/F-Luc cells; [7]) | other results |
| --- | --- | --- | --- | --- | --- | --- | --- |
| CNCCC(Oc1cccc2ccccc12)c1cccs1 (centres unmarked) [RFM-000-319-0] | 143 |  |  |  |  |  | IC50 (HCoV-229E; Huh7.5, read-out: IC50 (µM), HCoV 229E, HCoV-229E/R-Luc on Huh-7.5/F-Luc cells, dose series, max. dose 5 µM): 1.44 µM; CC50 (µM) (Huh-7.5/F-Luc cells): greater than maximum tested dose; Anti-SARS-CoV-2 screening on Calu-3 cells: intracellular SARS-CoV-2 infection measured via immunofluorescence imaging [% of control] (SARS-CoV-2): 109.17 % of control; viability (in vitro [2]; Anti-SARS-CoV-2 screening on Calu-3 cells: viability [% of control]): 104% |
| CC(C)C(=O)c1ccc(OCCCN2CCC(C(O)(c3ccc(F)cc3)c3ccc(F)cc3)CC2)cc1 [RFM-010-056-1] | 119 | greater than maximum tested dose | 122.17 % of control | 93.4 |  |  | IC50 (HCoV-229E; [3]): 1.47 µM |
| Cc1nc(Nc2ncc(N3CCN(C)[C@H](C)C3)c(Nc3cc(C)n(C)n3)n2)cc(C2CC2)c1F [RFM-012-989-5] | 125 | greater than maximum tested dose | 114.63 % of control | 114 |  |  | IC50 (HCoV-229E; [3]): 1.97 µM |
| CN1CCN(CC/C=C2/c3ccccc3Sc3ccc(S(=O)(=O)N(C)C)cc32)CC1 [RFM-003-384-1] | 148 |  |  |  |  |  | IC50 (HCoV-229E; [3]): 1.22 µM; CC50 (µM) (Huh-7.5/F-Luc cells): greater than maximum tested dose; Anti-SARS-CoV-2 screening on Calu-3 cells: intracellular SARS-CoV-2 infection measured via immunofluorescence imaging [% of control] (SARS-CoV-2): 116.45 % of control; viability at 48 h, 5 µM (in vitro [2]): 114% |
| CCNCc1cc(Nc2ccnc3cc(Cl)ccc23)ccc1O [CBR-001-843-604-9] | 131 | greater than maximum tested dose |  |  |  |  | IC50 (HCoV-229E; [3]): 1.43 µM |
| CCCN(CCC)C(=O)C(Cc1ccc(OCCCN2CCN(C)CC2)cc1)NC(=O)c1cccc(Cl)c1 (centres unmarked) [RFM-012-155-1] | 126 | greater than maximum tested dose | 95.12 % of control | 104 |  |  | IC50 (HCoV-229E; [3]): 3.67 µM |
| CN(C)CCC=C1c2ccccc2C(C)(C)c2ccccc21 [RFM-000-885-5] | 152 | greater than maximum tested dose | 109.53 % of control | 93 |  |  | IC50 (HCoV-229E; [3]): 1.34 µM |
| CC(C)Oc1ccc(-c2nc(-c3cccc4c3CC[C@@H]4NCCO)no2)cc1C#N [CBR-001-211-015-5] | 129 | greater than maximum tested dose |  |  |  |  | IC50 (HCoV-229E; [3]): 1.17 µM |
| OCCN1CCN(CCCN2c3ccccc3Sc3ccc(C(F)(F)F)cc32)CC1 [RFM-001-668-2] | 154 | greater than maximum tested dose | 116.92 % of control | 99 |  |  |  |
| O=C1NCCN1CCN1CCC(c2cn(-c3ccc(F)cc3)c3ccc(Cl)cc23)CC1 [sertindole] |  |  | 107.90 % of control |  | 0.96 | greater than maximum tested dose | viability at 48 h, 5 µM (in vitro [2]): 106% |
| CC(C)(C)c1cnc(CSc2cnc(NC(=O)C3CCNCC3)s2)o1 [SNS-032] |  |  | 132.10 % of control | 39.8 | 0.21 | greater than maximum tested dose |  |
| Cc1c(-c2ccc(O)cc2)n(Cc2ccc(OCCN3CCCCCC3)cc2)c2ccc(O)cc12 [RFM-002-868-2] | 165 | greater than maximum tested dose | 103.07 % of control |  |  |  | viability at 48 h, 5 µM (in vitro [2]; [6]): 96.9% |
| COc1ccc(C(C)C)cc1CNC1C2CCN(CC2)C1C(c1ccccc1)c1ccccc1 (centres unmarked) [RFM-011-108-0] |  |  | 86.21 % of control |  | 0.85 | greater than maximum tested dose | viability at 48 h, 5 µM (in vitro [2]): 96.4% |
| CNC1CC(c2ccc(Cl)c(Cl)c2)c2ccccc21 (centres unmarked) [Indatraline] |  |  | 97.64 % of control | 88.1 |  | greater than maximum tested dose | IC50 (HCoV-229E; Huh7.5, read-out: IC50): 0.83 µM |
| CCOc1cc2c(c(F)c1OCC)C(=N)N(CC(=O)c1cc(N3CCOCC3)c(OC)c(C(C)(C)C)c1)C2 [atopaxar] |  |  | 107.54 % of control | 81.4 | 0.49 | greater than maximum tested dose |  |
| CN(C)CCOC1=Cc2ccccc2Sc2ccc(Cl)cc21 [zotepine] |  |  | 107.66 % of control |  | 1.04 | greater than maximum tested dose | viability at 48 h, 5 µM (in vitro [2]): 98.1% |
| CO[C@@H]1[C@H](O)C[C@@H](O[C@@H]2C[C@H](Oc3cc4cc5c(c(O)c4c(O)c3C)C(=O)[C@@H](O[C@H]3C[C@@H](O[C@H]4C[C@@H](O[C@H]6C[C@](C)(O)[C@@H](OC(C)=O)[C@H](C)O6)[C@H](O)[C@@H](C)O4)[C@H](O)[C@@H](C)O3)[C@H]([C@H](OC)C(=O)[C@@H](O)[C@@H](C)O)C5)O[C@H](C)[C@@H]2OC(C)=O)O[C@@H]1C [CHROMOMYCIN A3] |  |  | 60.39 % of control | 61.3 |  | greater than maximum tested dose | IC50 (HCoV-229E; Huh7.5, read-out: IC50): 0.16 µM |
| CCSc1ccc2c(c1)N(CCCN1CCN(C)CC1)c1ccccc1S2 [Thiethylperazine dimaleate] |  |  | 110.38 % of control | 95.3 | 0.93 | greater than maximum tested dose |  |
| CCN(CC)CCN(Cc1ccc(-c2ccc(C(F)(F)F)cc2)cc1)C(=O)Cn1c(SCc2ccc(F)cc2)nc(=O)c2c1CCC2 [Darapladib] |  |  | 107.62 % of control |  | 0.3 | greater than maximum tested dose | viability at 48 h, 5 µM (in vitro [2]): 103% |
| CC(C)(Cc1ccc2ccccc2c1)NC[C@@H](O)COc1cccc(Cl)c1C#N [SB 262470] |  |  | 110.66 % of control | 106 | 0.96 | greater than maximum tested dose |  |
| CS[C@H]1SC[C@H]2C(=O)N(C)[C@@H](C(C)C)C(=O)OC[C@@H](NC(=O)c3cnc4ccccc4n3)C(=O)N[C@@H](C)C(=O)N(C)[C@@H]1C(=O)N(C)[C@@H](C(C)C)C(=O)OC[C@@H](NC(=O)c1cnc3ccccc3n1)C(=O)N[C@@H](C)C(=O)N2C [Echinomycin] |  |  | 92.25 % of control |  |  | greater than maximum tested dose | IC50 (HCoV-229E; Huh7.5, read-out: IC50): 0.1 µM; viability (in vitro [2]): 95.2% |
| CN1CCC(c2cn(C)c3ccc(OS(=O)(=O)c4c(F)cccc4F)cc23)CC1 [LY-483518] |  |  | 109.16 % of control |  | 1.03 | greater than maximum tested dose | viability at 48 h, 5 µM (in vitro [2]): 111% |
| Cc1ccc(Sc2ccccc2N2CCNCC2)c(C)c1 [Vortioxetine hydrobromide] |  |  | 101.64 % of control | 82.8 | 0.99 | greater than maximum tested dose |  |
| COc1ccc2c(c1)CCC(c1ccccc1)=C2c1ccc(OCCN2CCCC2)cc1 [nafoxidine] |  |  | 104.91 % of control |  | 0.37 | greater than maximum tested dose | viability at 48 h, 5 µM (in vitro [2]): 110% |
| CC(C)(C)NCc1ccc(Nc2ccnc3cc(Cl)ccc23)cc1O [N-tert-Butylisoquine] |  |  | 111.10 % of control | 106 | 0.54 | greater than maximum tested dose |  |
